{"source": "patent US20100196932A1", "about": "“Yeast Reporter System” (THE BOARD OF TRUSTEES OF THE UNIVERSITY OF ILLINOIS, priority 2006, published 2010)", "molecules": {"B1": {"name": "Aβm1MRF (Aβ42 F19,20T MRF, plasmid p1397) (other, yeast S. cerevisiae, not shown: small tags and cut ends)", "chain": "MDAEFRHDSGYEVHHQKLVTTAEDVGSNKGAIIGLMVGGVVIAMSLNDFQKQQKQAAPKPKKTLKLVSSSGIKLANATKKVGTKPAESDKKEEEKSAETKEPTKEPTKVEEPVKKEEKPVQTEEKTEEKSELPKVEDLKISESTHNTNNANVTSADALIKEQEEEVDDEVVNDMFGGKDHVSLIFMGHVDAGKSTMGGNLLYLTGSVDKRTIEKYEREAKDAGRQGWYLSWVMDTNKEERNDGKTIEVGKAYFETEKRRYTILDAPGHKMYVSEMIGGASQADVGVLVISARKGEYETGFERGGQTREHALLAKTQGVNKMVVVVNKMDDPTVNWSKERYDQCVSNVSNFLRAIGYNIKTDVVFMPVSGYSGANLKDHVDPKECPWYTGPTLLEYLDTMNHVDRHINAPFMLPIAAKMKDLGTIVEGKIESGHIKKGQSTLLMPNKTAVEIQNIYNETENEVDMAMCGEQVKLRIKGVEEEDISPGFVLTSPKNPIKSVTKFVAQIAIVELKSIIAAGFSCVMHVHTAIEEVHIVKLLHKLEKGTNRKSKKPPAFAKKGMKVIAVLETEAPVCVETYQDYPQLGRFTLRDQGTTIAIGKIVKIAE", "notes": "domain: M;domain: RF; also called Aβ^F19,20TMRF"}, "B2": {"name": "MRF (HA-tagged Sup35p without the 123 N-terminal amino acids, plasmid p1366) (other, yeast S. cerevisiae, UniProt P05453 124-253, looked up, not shown: small tags and cut ends)", "chain": "MSLNDFQKQQKQAAPKPKKTLKLVSSSGIKLANATKKVGTKPAESDKKEEEKSAETKEPTKEPTKVEEPVKKEEKPVQTEEKTEEKSELPKVEDLKISESTHNTNNANVTSADALIKEQEEEVDDEVVNDMFGGKDHVSLIFMGHVDAGKSTMGGNLLYLTGSVDKRTIEKYEREAKDAGRQGWYLSWVMDTNKEERNDGKTIEVGKAYFETEKRRYTILDAPGHKMYVSEMIGGASQADVGVLVISARKGEYETGFERGGQTREHALLAKTQGVNKMVVVVNKMDDPTVNWSKERYDQCVSNVSNFLRAIGYNIKTDVVFMPVSGYSGANLKDHVDPKECPWYTGPTLLEYLDTMNHVDRHINAPFMLPIAAKMKDLGTIVEGKIESGHIKKGQSTLLMPNKTAVEIQNIYNETENEVDMAMCGEQVKLRIKGVEEEDISPGFVLTSPKNPIKSVTKFVAQIAIVELKSIIAAGFSCVMHVHTAIEEVHIVKLLHKLEKGTNRKSKKPPAFAKKGMKVIAVLETEAPVCVETYQDYPQLGRFTLRDQGTTIAIGKIVKIAE", "notes": "domain: M;domain: RF; also called HA-tagged MRF; Sup35p without the N-terminal prion domain"}}, "key": {"AβMRF [1]": {"test_system": "AβMRF", "type": "cell-based, S. cerevisiae"}, "Aβm1MRF": {"test_system": "Aβm1MRF", "type": "cell-based, S. cerevisiae"}, "Aβm2MRF": {"test_system": "Aβm2MRF", "type": "cell-based, S. cerevisiae"}, "AβMRF [2]": {"test_system": "AβMRF", "type": "cell-based, S. cerevisiae", "remark": "listed apart in the source"}, "Hsp104": {"target": "Hsp104 (Saccharomyces cerevisiae, UniProt P31539)", "sequence (P31539 whole entry)": "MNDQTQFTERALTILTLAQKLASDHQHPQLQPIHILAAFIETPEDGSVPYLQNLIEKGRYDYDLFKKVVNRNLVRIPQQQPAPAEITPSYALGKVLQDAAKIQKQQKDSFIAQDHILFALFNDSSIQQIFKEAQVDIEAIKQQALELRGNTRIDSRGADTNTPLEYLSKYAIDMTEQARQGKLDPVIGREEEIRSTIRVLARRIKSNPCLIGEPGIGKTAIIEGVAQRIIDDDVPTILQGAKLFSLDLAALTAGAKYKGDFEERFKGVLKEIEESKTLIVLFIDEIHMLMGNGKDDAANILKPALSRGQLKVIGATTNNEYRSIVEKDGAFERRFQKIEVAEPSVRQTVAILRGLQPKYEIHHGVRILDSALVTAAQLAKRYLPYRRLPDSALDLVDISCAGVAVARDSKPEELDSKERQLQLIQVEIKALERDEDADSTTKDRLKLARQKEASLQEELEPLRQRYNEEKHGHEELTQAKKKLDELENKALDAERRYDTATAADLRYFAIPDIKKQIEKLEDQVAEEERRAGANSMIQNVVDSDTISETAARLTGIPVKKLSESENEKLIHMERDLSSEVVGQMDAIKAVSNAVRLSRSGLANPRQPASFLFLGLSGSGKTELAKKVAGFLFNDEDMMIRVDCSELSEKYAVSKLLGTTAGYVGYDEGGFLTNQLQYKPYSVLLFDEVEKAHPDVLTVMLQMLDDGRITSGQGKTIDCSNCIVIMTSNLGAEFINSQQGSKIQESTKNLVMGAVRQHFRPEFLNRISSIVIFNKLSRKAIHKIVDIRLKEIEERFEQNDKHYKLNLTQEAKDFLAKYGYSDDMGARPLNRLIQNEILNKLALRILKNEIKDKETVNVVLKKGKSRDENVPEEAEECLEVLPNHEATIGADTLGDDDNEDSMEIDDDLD", "conditions": "cited from earlier work"}, "[3]": {"target": "the molecule itself", "assay": "self-oligomerization; SDS electrophoresis and immunoblot of yeast lysates"}, "[4]": {"target": "the molecule itself", "assay": "SDS electrophoresis (1% SDS, room temperature) and immunoblot of yeast lysates"}, "Hsp104 (yeast chaperone)": {"target": "Hsp104 (yeast chaperone) (yeast S. cerevisiae, UniProt P31539 1-908)", "sequence (P31539 whole entry)": "as above", "assay": "co-immunoprecipitation from yeast lysate with anti-HA agarose beads, immunoblot with anti-Hsp104", "protocol": "FIG. 7. […] Co-precipitated proteins were eluted and analyzed by immunoblotting with anti-RF and anti-Hsp104 antibodies.\nFollowing incubation, the beads were washed three times with 0.5 ml of phosphate buffered saline containing 0.05% Tween 20 to remove the non-specifically bound proteins."}}}
{"molecule": "guanidine hydrochloride", "values": [{"measurement": "amount of AβMRF oligomers", "setting": "AβMRF [1]", "value": "dramatically increased"}, {"measurement": "monomeric pool of AβMRF", "setting": "AβMRF [1]", "value": "depleting the monomeric pool"}, {"measurement": "amount of Aβm1MRF oligomers", "setting": "Aβm1MRF", "value": "dramatically increased"}, {"measurement": "monomeric pool of Aβm1MRF", "setting": "Aβm1MRF", "value": "depleting the monomeric pool"}, {"measurement": "effect on oligomers/monomers of control Aβm2MRF protein", "setting": "Aβm2MRF", "value": "No such effect was detected"}, {"measurement": "oligomerization of AβMRF in the absence of HSP104", "setting": "AβMRF [2]", "value": "stimulated oligomerization of AβMRF"}, {"measurement": "ATPase activity of Hsp104", "setting": "Hsp104", "value": "inhibited by millimolar concentrations"}]}
{"molecule": "B1", "values": [{"measurement": "binding result", "setting": "[3]", "value": "binds"}]}
{"molecule": "B2", "values": [{"measurement": "binding result", "setting": "[4]", "value": "no binding"}, {"measurement": "binding result", "setting": "Hsp104 (yeast chaperone)", "value": "no binding"}]}
